Experimental data as given in US20220062391A1, “ENHANCING EPITHELIAL OR ENDOTHELIAL BARRIER FUNCTION” (UNIVERSITY OF ROCHESTER, priority 2019, published 2022).

How the values were obtained:
ATI cells [1] = experiment: TEER of alveolar epithelial monolayers on transwell plates; assay type: cell-based, rat
Procedure: Primary rat alveolar epithelial type II cells were isolated using an IgG-panning approach as described by Dobbs (74). Briefly, lungs from Sprague Dawley rats (200-250 g) were surgically removed and perfused, lavaged, and treated with 1 mg/ml of elastase (WORTHINGTON BIOCHEMICAL, Lakewood, N.J.) to release the epithelial cells. Next, lung lobes were separated, cut, minced, filtered and spin down at 1500 rpm for 15 minutes. The cells were resuspended with DMEM without FBS and transferred into two IgG plates. After incubation at 37° C. for one hour, non-adhered cells (predominately ATII cells) were transferred to a new tube and centrifuged at 1500 rpm for 15 minutes. The cells were resuspended in DMEM containing 10% FBS and plated on fibronectin coated plates. To coat the plates with fibronectin, 20 μg/ml of fibronectin from bovine plasma (F1141, SIGMA-ALDRICH, St. Louis, Mo.) was added to 100 mm culture plates (using 3 ml) or the upper chamber of the transwell plates (using 400 μl). Plates were left at 37° C. for 3 hours. Residual solution was removed, and plates were dried in a tissue culture hood for at least 30 minutes before cells were added. 16HBE14o-human bronchial epithelial cells were cultured in Dulbecco's modified Eagle's medium as previously reported (18).
Prior to the assay, cells cultured on 12-well transwell plates (12 mm transwell with 0.4 μm pore polyester membrane insert; CORNING, Corning, N.Y.) were moved to the tissue culture hood for 15 minutes to allow the medium equilibrate to room temperature. TEER was measured using an epithelial voltmeter (EVOM2; WORLD PRECISION INSTRUMENTS, Sarasota, Fla.). Three readings were recorded and averaged for each well. To calculate TEER, the resistance of the fibronectin-coated insert without cells (blank resistance) was subtracted from the measured resistance, then multiplied by 1.12 cm^2 to account for the surface area of the insert.

mouse lungs = experiment: Alveolar fluid clearance (AFC) in live mice; assay type: in vivo; conditions: two days after gene transfer, or 10^−8 mol/L in the instillation solution
Procedure: (§1) Male C57BL/6 mice (9-11 weeks) were anesthetized with isoflurane and 100 μg of each individual plasmid were delivered in 50 μl of 10 mM Tris-HCl (pH 8.0), 1 mM EDTA, and 140 mM NaCl, to mouse lungs by aspiration (when both β1 and MRCKα were delivered, 100 μg of each were administered prior to electroporation) as previously described in Lin, X., et al., Gene Ther 23: 489-99. Eight, 10 msec square wave pulses at a field strength of 200 V/cm were immediately applied using cutaneous electrophysiology electrodes (MEDTRONIC, Redmond, Wash.) placed on the mouse chest with an ECM830 electroporator (BTX, HARVARD […], Holliston, Mass.). […]
The method used in this study was performed in live mice as previously described in Lin, X., et al., Gene Ther 23: 489-99 and Mutlu, G. M., et al., Circ Res 94: 1091-100. […] Protein concentration in the aspirate was assessed using a Bradford assay (BIO-RAD LABORATORIES, Hercules, Calif.) and AFC was calculated using following equation: AFC=1−(C0/C30), where C0, is the protein concentration of the instillate before instillation, and C30 is the protein concentration of the sample obtained at the end of 30 minutes of mechanical ventilation. Clearance is expressed as a percentage of total instilled volume cleared/30 minutes. […]

ATI cells [2] = experiment: Western blot of tight junction proteins in transfected ATI cells; assay type: cell-based, rat; conditions: 24 hours
Procedure: (§2) Primary rat alveolar epithelial type II cells were isolated using an IgG-panning approach as described by Dobbs (74). Briefly, lungs from Sprague Dawley rats (200-250 g) were surgically removed and perfused, lavaged, and treated with 1 mg/ml of elastase (WORTHINGTON BIOCHEMICAL, Lakewood, N.J.) to release the epithelial cells. Next, lung lobes were separated, cut, minced, filtered and spin down at 1500 rpm for 15 minutes. The cells were resuspended with DMEM without FBS and transferred into two IgG plates. After incubation at 37° C. for one hour, non-adhered cells (predominately ATII cells) were transferred to a new tube and centrifuged at 1500 rpm for 15 minutes. The cells were resuspended in DMEM containing 10% FBS and plated on fibronectin coated plates. […]
(§3) Cells were lysed with reporter lysis buffer (lx, PROMEGA), supplemented with protease inhibitor (COMPLETE, Mini, EDTA-free tablets; ROCHE, Basel, Switzerland) and phosphatase inhibitor (PHOSSTOP Phosphatase Inhibitor Cocktail; ROCHE, Basel, Switzerland). […] After incubation with secondary antibody and development, bands were detected on film (BIOMAX MR film; […] HEALTH, Rochester, N.Y.) or using the CHEMIDOC IMAGING SYSTEM (BIO-RAD, Hercules, Calif.) and quantified using the IMAGE STUDIO™ LITE software (LI-COR, Lincoln, Nebr.) or the IMAGE LAB SOFTWARE (BIO-RAD, Hercules, Calif.).

16HBE14o-cells = experiment: Doxycycline-inducible β1 expression, immunoblot in 16HBE14o- cells; assay type: cell-based, human; conditions: 24 hours post transfection
Procedure: as §2, with “minutes.” for “minutes. The cells were resuspended in DMEM containing 10% FBS and plated on fibronectin coated plates.”
as §3
Given that the β1 subunit increased protein expressions of tight junctions in ATI cells, their localization in these cells was analyzed. […]

[3] = target: MRCKα of primary rat alveolar type I (ATI) cells (rat) (UniProt O54874); experiment: cell-based or functional assay
UniProt O54874, sequence (O54874 whole entry): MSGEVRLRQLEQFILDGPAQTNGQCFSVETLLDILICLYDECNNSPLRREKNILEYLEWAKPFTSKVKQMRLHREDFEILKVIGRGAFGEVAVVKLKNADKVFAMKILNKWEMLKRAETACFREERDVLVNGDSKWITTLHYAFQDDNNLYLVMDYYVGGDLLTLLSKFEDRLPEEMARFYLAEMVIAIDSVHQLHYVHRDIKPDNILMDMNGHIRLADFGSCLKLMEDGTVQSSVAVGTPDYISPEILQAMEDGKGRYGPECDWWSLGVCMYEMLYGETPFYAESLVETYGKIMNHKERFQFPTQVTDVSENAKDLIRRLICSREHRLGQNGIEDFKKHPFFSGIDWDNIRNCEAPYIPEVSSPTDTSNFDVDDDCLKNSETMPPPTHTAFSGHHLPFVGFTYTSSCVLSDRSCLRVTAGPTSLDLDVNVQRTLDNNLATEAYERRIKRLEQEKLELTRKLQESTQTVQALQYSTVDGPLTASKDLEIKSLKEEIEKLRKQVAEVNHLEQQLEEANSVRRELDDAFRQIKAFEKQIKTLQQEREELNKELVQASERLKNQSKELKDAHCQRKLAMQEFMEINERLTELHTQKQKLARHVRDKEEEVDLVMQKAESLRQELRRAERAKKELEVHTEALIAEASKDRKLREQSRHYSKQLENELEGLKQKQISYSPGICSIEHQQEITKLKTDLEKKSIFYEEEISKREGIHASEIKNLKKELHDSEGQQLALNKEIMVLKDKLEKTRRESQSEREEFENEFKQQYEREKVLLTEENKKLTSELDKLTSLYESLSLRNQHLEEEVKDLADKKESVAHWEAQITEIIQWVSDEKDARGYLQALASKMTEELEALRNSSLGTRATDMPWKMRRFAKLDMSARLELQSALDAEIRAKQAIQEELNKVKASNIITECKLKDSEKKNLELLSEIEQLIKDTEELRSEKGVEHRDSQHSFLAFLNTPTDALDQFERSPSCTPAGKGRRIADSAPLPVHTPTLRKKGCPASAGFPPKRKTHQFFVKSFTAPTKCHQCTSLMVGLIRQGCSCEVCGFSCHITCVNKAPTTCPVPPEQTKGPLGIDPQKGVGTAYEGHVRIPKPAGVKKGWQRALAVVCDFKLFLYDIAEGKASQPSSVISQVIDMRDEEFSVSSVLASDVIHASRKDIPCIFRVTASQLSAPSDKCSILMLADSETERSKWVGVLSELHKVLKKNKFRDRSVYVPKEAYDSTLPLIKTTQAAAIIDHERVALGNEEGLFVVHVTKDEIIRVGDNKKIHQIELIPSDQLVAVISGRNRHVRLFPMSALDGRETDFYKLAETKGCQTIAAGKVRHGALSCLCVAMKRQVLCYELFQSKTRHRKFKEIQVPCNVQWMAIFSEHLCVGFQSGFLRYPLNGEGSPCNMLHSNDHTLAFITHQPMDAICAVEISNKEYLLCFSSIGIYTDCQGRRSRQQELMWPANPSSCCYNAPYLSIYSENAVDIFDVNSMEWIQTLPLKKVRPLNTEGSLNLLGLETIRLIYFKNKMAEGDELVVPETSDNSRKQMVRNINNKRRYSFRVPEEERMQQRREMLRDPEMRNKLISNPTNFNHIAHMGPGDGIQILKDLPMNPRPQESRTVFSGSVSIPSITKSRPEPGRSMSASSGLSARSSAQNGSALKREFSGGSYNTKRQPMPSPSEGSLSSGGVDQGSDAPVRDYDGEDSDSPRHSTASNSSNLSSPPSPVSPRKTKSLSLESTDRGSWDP

ATI cells [4] = experiment: Permeability to fluorescent dextran tracers; assay type: cell-based, rat; conditions: 1 μg/ml
Procedure: Permeability to fluorescent tracers was measured using a modified protocol previous described (76). […] Five hundred microliters of freshly prepared solution containing 100 μg/mL of 40 kD FITC-dextran and 100 μg/mL of 31(D Texas Red-dextran were added to the apical compartment. One thousand microliters of P buffer was added to the bottom chamber. After 2 hours incubation at 37° C., 100 μl of the basal medium was collected and the fluorescence of the transported dextran was measured with a SPECTRAMAX M5 multi-mode microplate reader (MOLECULAR DEVICES, San Jose, Calif.). The excitation wavelength and emission wavelength are 492 nm and 520 nm for FITC and 596 nm and 615 nm for Texas-red, respectively. The quantity of tracer was calculated by comparison with a standard curve. A permeability coefficient was determined using the following equation (77): Pc (cm/min)=V/(A×Co)×(C/T) where V is volume in the lower compartment (1 ml), A is the surface area of the membrane (1.12 cm^2 for the 12-well transwell used here), Co is the dextran concentration in the upper compartment at time 0 (0.1 mg/ml), and C is the dextran concentration in the lower compartment at time T of sampling (2 hours).

LPS-injured lungs [5] = experiment: Western blot of occludin and ZO-1 in mouse lungs; assay type: in vivo; conditions: LPS 5 mg/kg
Procedure: as §1, with “Mass.). All LPS-challenged mice received 5 mg/kg of LPS (Escherichia coli 055:B5, 15,000,000 endotoxin units/mg protein; SIGMA-ALDRICH, St. Louis, Mo.) in 50 μl of phosphate-buffered saline (PBS) by aspiration, one day before gene transfer (n=5-11 mice/group).” for “Mass.).”
Western blots were performed as previously described in Lin, X., et al. Am J Respir Crit Care Med 183: 1689-97. […] After incubation with secondary antibody and development, bands were detected using the CHEMIDOC Imaging System (BIO-RAD, Hercules, Calif.) and quantified using the IMAGE STUDIO™ LITE software (LI-COR, Lincoln, Nebr.) or the IMAGE LAB software (BIO-RAD, Hercules, Calif.).

LPS-injured lungs [6] = experiment: Pulmonary permeability by Evan's blue dye leakage; assay type: in vivo, mouse; conditions: LPS 5 mg/kg intratracheal, compared with naïve mice
Procedure: as §1, with “Mass.). All LPS-challenged mice received 5 mg/kg of LPS (Escherichia coli 055:B5, 15,000,000 endotoxin units/mg protein; SIGMA-ALDRICH, St. Louis, Mo.) in 50 μl of phosphate-buffered saline (PBS) by aspiration, one day before gene transfer (n=5-11 mice/group).” for “Mass.).”
Pulmonary permeability was measured by Evan's blue dye (EBD) leakage from blood into airways (Baluk, P., et al., Br J Pharmacol 126: 522-8 and Mammoto, A., et al., Nat Commun 4: 1759). […] 24 hrs later, EBD was extracted in formamide (FISHER […]) at 37° C. for 24 hrs and quantified by measuring spectrophotometrically at 620 nm and 740 nm, correcting by using formula E620 (EBD)=E620−(1.426×E740+0.030) (Standiford, T. J., et al., J Immunol 155: 1515-24).

Compound: O=C(Nc1cn[nH]c1-c1ccccn1)c1nn(C2CCNCC2)cc1Cl [BDP5290]
- baseline TEER (ATI cells [1]; 2 μM inhibitor): decreased
- β1 subunit-induced increase of barrier integrity (TEER) under MRCKα inhibition (ATI cells [1]; 2 μM inhibitor): prevented β1 subunit-induced increase of barrier integrity

Compound: CCC(NC(C)C)C(O)c1ccc(O)c2[nH]c(=O)ccc12 (stereo not drawn) [procaterol, Procaterol]
- increase of AFC (mouse lungs): 145%

Compound: Cc1ccc2c(c1)C(=O)C1(O)CCN(c3ccccc3)C1=N2 (stereo not drawn) [blebbistatin]
- β1-induced upregulation of occludin in presence of blebbistatin (ATI cells [2]; ATI cells transfected with rat β1, blebbistatin 1, 10 or 100 uM): significantly suppress the upregulation of occludin
- β1-induced increase in TEER under myosin II inhibition (ATI cells [1]; pretreatment 20 μM): prevented the increase in TEER

Compound: C[C@H]1c2cccc(O)c2C(=O)C2=C(O)[C@]3(O)C(=O)C(C(N)=O)=C(O)[C@@H](N(C)C)[C@@H]3[C@@H](O)[C@@H]21 [doxycycline]
- doxycycline concentration of maximum induction of β1 subunit (16HBE14o-cells): 1000 ng/mL

Compound: rat Na+, K+-ATPase β1 subunit (from UniProt P07340 1-304)
- phosphorylation of myosin light chain 2 (MLC2) at Ser19, western blot after β1 subunit overexpression in ATI cells [3]: 2 fold

Compound: C[C@@H]1O[C@@H](O[C@H]2C[C@@H](O)[C@]3(CO)[C@H]4[C@H](O)C[C@]5(C)[C@@H](C6=CC(=O)OC6)CC[C@]5(O)[C@@H]4CC[C@]3(O)C2)[C@H](O)[C@H](O)[C@H]1O [ouabain]
- β1-induced upregulation of occludin in presence of ouabain (ATI cells [2]; ATI cells transfected with rat β1, ouabain 10 nM, 100 nM or 1000 nM): did not block the upregulation of occludin

Compound: lipopolysaccharide
- TEER after lipopolysaccharide (ATI cells [1]; 1 μg/ml, 24 hours): decreased TEER
- permeability to 4 kD Dextran after lipopolysaccharide (ATI cells [4]): increased permeability
- levels of ZO-1 and occludin in lungs after LPS injury (LPS-injured lungs [5]): reduced levels
- increase of pulmonary leakage in response to LPS (LPS-injured lungs [6]): three- to four-fold
